According to patent publication US7074798B2, “Xanthine derivative and DPPIV inhibitor” (Eisai Co., Ltd, priority 2002, dated 2006):
Where a name gives a salt, the structure may show the parent alone.

Tested on: male C57BL/6N mouse
Experiment: Effect on glucose tolerance of normal mouse (oral glucose loading)
Assay type: in vivo
Details: 2 h, 30 min before glucose 2 g/kg, AUC0-120, 0.5% MC = 100%, NVP DPP728 10 mg/kg = 0%, lower = better, read-out: Improvement degree of glucose tolerance; for response vs control in vivo at 3 mg/kg: 3 mg/kg oral; for response vs control in vivo at 1 mg/kg: 1 mg/kg oral
Protocol: Effect on Glucose Tolerance of Normal Mouse
male C57BL/6N mouse (purchased from CHARLES RIVER JAPAN, INC.)
A suspension of the test compound and NVP DPP728 or 0.5% MC solution (solvent control group) were orally administered at a dose of 10 mL/kg, and after 30 minutes, glucose solution was orally administered at a dose of 10 mL/kg. Glucose was orally administered at a dose of 2 g/kg.
Immediately before the administration of the test substance and NVP DPP728, immediately before the administration of the glucose solution and at 30 minutes, 60 minutes, and 120 minutes after the administration, a tail vein of the mouse was injured to slightly bleed by a razor under no anesthesia. 10 μl of blood was collected and was immediately mixed with 0.6M perchloric acid (140 μl). Glucose in the supernatant obtained by centrifugation (1500 g, 10 minutes, 4° C., refrigerated centrifuge GS-6KR, Beckman Instruments, Inc.) was measured using Glucose CII-Test Wako (Wako Pure Chemical Industries, Ltd.).
Area under the curve of blood glucose level-time (AUC0-120; Area Under the Curve) from the time of administration of glucose to 120 minutes after administration was calculated for respective administration groups, i.e., 0.5% MC solution, NVP DPP728, and the test compounds. Taking the AUC0-120 of the 0.5% MC solution administration group as 100% and the AUC0-120 of NVP DPP728 (10 mg/kg) administration group as 0%, the improvement degree of the glucose tolerance of a test compound was calculated using the following formula: Improvement degree of the glucose tolerance (%)=(AUC0-120 of the test compound−AUC0-120 of the NVP DPP728 (10 mg/kg) administration group)/(AUC0-120 of the 0.5% MC solution administration group−AUC0-120 of the NVP DPP728 (10 mg/kg) administration group)×100. • The lower the % value, the greater the improvement degree of the glucose tolerance will be.

CC#CCn1c(N2CCNCC2)nc2c1c(=O)n(CC(=O)c1ccccc1)c(=O)n2CCOCC [Example 323, 7-(2-Butynyl)-3-(2-ethoxyethyl)-1-(2-oxo-2-phenylethyl-8-(piperazin-1-yl)-3,7-dihydropurine-2,6-dione trifluoroacetate]
response vs control in vivo at 3 mg/kg: 0.5%

CC#CCn1c(N2CCNCC2)nc2c1c(=O)[nH]c(=O)n2CCOCC [Example 321, 7-(2-Butynyl)-3-(2-ethoxyethyl)-8-(piperazin-1-yl)-3,7-dihydropurine-2,6-dione trifluoroacetate]
response vs control in vivo at 3 mg/kg: 16.9%

CC#CCn1c(N2CCNCC2)nc2c1c(=O)n(C)c(=O)n2C1CCOC1=O (stereo not drawn) [Example 263, 7-(2-Butynyl)-3-(2-oxo-tetrahydrofuran-3-yl)-1-methyl-8-(piperazin-1-yl)-3,7-dihydropurine-2,6-dione trifluoroacetate]
response vs control in vivo at 3 mg/kg: 16.4%

CC#CCn1c(N2CCNCC2)nc2c1c(=O)n(C)c(=O)n2C(C)C [Example 270, 7-(2-Butynyl)-3-isopropyl-1-methyl-8-(piperazin-1-yl)-3,7-dihydropurine-2,6-dione trifluoroacetate]
response vs control in vivo at 3 mg/kg: 7.3%

COc1ccccc1-n1c(N2CCNCC2)nc2c1c(=O)n(C)c(=O)n2C [Example 123, 7-(2-Methoxyphenyl)-1,3-dimethyl-8-(piperazin-1-yl)-3,7-dihydropurine-2,6-dione trifluoroacetate]
response vs control in vivo at 3 mg/kg: 17.9%

NC(=O)Cn1c(=O)[nH]c(=O)c2c1nc(N1CCNCC1)n2-c1ccccc1Cl [Example 194, 2-[7-(2-Chlorophenyl)-2,6-dioxo-8-(piperazin-1-yl)-1,2,6,7-tetrahydropurin-3-yl]-acetamide trifluoroacetate]
response vs control in vivo at 3 mg/kg: 9.9%

CC#CCn1c(N2CCNCC2)nc2c1c(=O)n(Cc1ccccc1C#N)c(=O)n2C [Example 39, 2-[7-(2-Butynyl)-3-methyl-2,6-dioxo-8-(piperazin-1-yl)-2,3,6,7-tetrahydropurin-1-ylmethyl]-benzonitrile trifluoroacetate]
response vs control in vivo at 1 mg/kg: 45.5%

CC#CCn1c(N2CCNCC2)nc2c1c(=O)n(CCOCC)c(=O)n2C [Example 18, 7-(2-Butynyl)-1-(2-ethoxyethyl)-3-methyl-8-(piperazin-1-yl)-3,7-dihydropurine-2,6-dione trifluoroacetate]
response vs control in vivo at 3 mg/kg: 9.5%

C=Cc1ccccc1-n1c(N2CCNCC2)nc2c1c(=O)[nH]c(=O)n2C [Example 174, 7-(2-Vinylphenyl)-3-methyl-8-(piperazin-1-yl)-3,7-dihydropurine-2,6-dione]
response vs control in vivo at 1 mg/kg: 24.3% | response vs control in vivo at 3 mg/kg: -9.1%

CC#CCn1c(N2CCNCC2)nc2c1c(=O)n(C)c(=O)n2CCOCC [Example 266, 7-(2-Butynyl)-3-(2-ethoxyethyl)-1-methyl-8-(piperazin-1-yl)-3,7-dihydropurine-2,6-dione trifluoroacetate]
response vs control in vivo at 3 mg/kg: -2.3%

CC#CCn1c(N2CCNCC2)nc2c1c(=O)n(CC(=O)OC)c(=O)n2C [Example 15, [7-(2-Butynyl)-3-methyl-2,6-dioxo-8-(piperazin-1-yl)-2,3,6,7-tetrahydropurin-1-yl]acetic acid methyl ester trifluoroacetate]
response vs control in vivo at 3 mg/kg: -17.2%

CC#CCn1c(N2CCNCC2)nc2c1c(=O)n(C)c(=O)n2C1CCNC1=O (stereo not drawn) [Example 284, 7-(2-Butynyl)-1-methyl-3-(2-oxopyrrolidin-3-yl)-8-(piperazin-1-yl)-3,7-dihydropurine-2,6-dione hydrochloride]
response vs control in vivo at 3 mg/kg: 11.3%

CC#CCn1c(N2CCNCC2)nc2c1c(=O)n(C)c(=O)n2CC [Example 216, 7-(2-Butynyl)-3-ethyl-1-methyl-8-(piperazin-1-yl)-3,7-dihydropurine-2,6-dione trifluoroacetate]
response vs control in vivo at 3 mg/kg: -5%

CC#CCn1c(N2CCNCC2)nc2c1c(=O)n(C)c(=O)n2C [Example 10, 7-(2-Butynyl)-1,3-dimethyl-8-(piperazin-1-yl)-3,7-dihydropurine-2,6-dione]
response vs control in vivo at 3 mg/kg: 0.5%

CC#CCn1c(N2CCNCC2)nc2c1c(=O)[nH]c(=O)n2C [Example 14, 7-(2-Butynyl)-3-methyl-8-(piperazin-1-yl)-3,7-dihydropurine-2,6-dione]
response vs control in vivo at 1 mg/kg: 41.9%

C#CCn1c(=O)c2c(nc(N3CCNCC3)n2CC#CC)n(C)c1=O [Example 19, 7-(2-Butynyl)-3-methyl-8-(piperazin-1-yl)-1-(2-propynyl)-3,7-dihydropurine-2,6-dione trifluoroacetate]
response vs control in vivo at 3 mg/kg: -13.1%

CC#CCn1c(N2CCNCC2)nc2c1c(=O)n(C)c(=O)n2CC1CCCO1 (stereo not drawn) [Example 226, 7-(2-Butynyl)-3-(2-tetrahydrofuranyl)methyl-1-methyl-8-(piperazin-1-yl)-3,7-dihydropurine-2,6-dione trifluoroacetate]
response vs control in vivo at 3 mg/kg: -5.2%

CC#CCn1c(N2CCNCC2)nc2c1c(=O)n(C)c(=O)n2CCC [Example 243, 7-(2-Butynyl)-3-propyl-1-methyl-8-(piperazin-1-yl)-3,7-dihydropurine-2,6-dione trifluoroacetate]
response vs control in vivo at 3 mg/kg: 8.4%

COc1ccccc1-n1c(N2CCNCC2)nc2c1c(=O)n(CC#N)c(=O)n2C [Example 166, [7-(2-Methoxyphenyl)-3-methyl-2,6-dioxo-8-(piperazin-1-yl)-2,3,6,7-tetrahydropurin-1-yl]acetonitrile trifluoroacetate]
response vs control in vivo at 3 mg/kg: 16.1%

Cn1c(=O)[nH]c(=O)c2c1nc(N1CCNCC1)n2-c1ccccc1Cl [Example 156, 7-(2-Chlorophenyl)-3-methyl-8-(piperazin-1-yl)-3,7-dihydropurine-2,6-dione trifluoroacetate]
response vs control in vivo at 3 mg/kg: 0.9%

CC#CCn1c(N2CCNCC2)nc2c1c(=O)n(C)c(=O)n2C(C)C(=O)OCC (stereo not drawn) [Example 257, 2-[7-(2-Butynyl)-1-methyl-2,6-dioxo-8-(piperazin-1-yl)-1,2,6,7-tetrahydropurin-3-yl]propionic acid ethyl ester trifluoroacetate]
response vs control in vivo at 3 mg/kg: 10.5%

CC#CCn1c(N2CCNCC2)nc2c1c(=O)n(C)c(=O)n2C(C(=O)OC)c1ccccc1 (stereo not drawn) [Example 240, [7-(2-Butynyl)-1-methyl-2,6-dioxo-8-(piperazin-1-yl)-1,2,6,7-tetrahydropurin-3-yl]phenyl acetic acid methyl ester trifluoroacetate]
response vs control in vivo at 3 mg/kg: -2.8%

CC#CCn1c(N2CCNCC2)nc2c1c(=O)n(CCc1ccccc1)c(=O)n2CC(=O)OCC [Example 326, [7-(2-Butynyl)-2,6-dioxo-1-(2-phenethyl)-8-(piperazin-1-yl)-1,2,6,7-tetrahydropurin-3-yl]acetic acid ethyl ester hydrochloride]
response vs control in vivo at 1 mg/kg: -19.2% | response vs control in vivo at 3 mg/kg: -30.6%

CC#CCn1c(=O)c2c(nc(N3CCNCC3)n2CC#CC)n(C)c1=O [Example 20, 1,7-Bis(2-butynyl)-3-methyl-8-(piperazin-1-yl)-3,7-dihydropurine-2,6-dione trifluoroacetate]
response vs control in vivo at 3 mg/kg: 5%

CC#CCn1c(N2CCNCC2)nc2c1c(=O)n(C)c(=O)n2CC(=O)OC [Example 219, [7-(2-Butynyl)-1-methyl-2,6-dioxo-8-(piperazin-1-yl)-1,2,6,7-tetrahydropurin-3-yl]acetic acid methyl ester trifluoroacetate]
response vs control in vivo at 3 mg/kg: -1.4%
